Data: ChEMBL document CHEMBL6120999, “Total Synthesis and Anti-Inflammatory Activity of Tectoridin and Related Isoflavone Glucosides” (J Nat Prod, 2025)
The source made the active and inactive calls. No cut-off for these calls is given here.

Assays:
[1] = tested on: RAW264.7; assay: Cytotoxicity against mouse RAW264.7 cells assessed as effect on cell viability at 50 uM measured after 24 hrs by CCK-8 assay; assay type: toxicity, cell-based; details: raw264.7, 24 h
[2] = tested on: RAW264.7; assay: Anti-inflammatory activity in mouse RAW264.7 cells assessed as inhibition of LPS-induced NO production at 25 to 50 uM preincubated for 1 hr followed by LPS stimulation for 24 hrs by Griess reagent assay; assay type: functional, cell-based; details: dose 25-50 µM, time 25.0 hrs
[3] = tested on: RAW264.7; assay: Anti-inflammatory activity against LPS-induced mouse RAW264.7 cells assessed as effect on TNF-alpha gene expression at 50 uM treated for 24 hrs by RT-qPCR analysis; assay type: functional, cell-based
[4] = tested on: RAW264.7; assay: Anti-inflammatory activity against LPS-induced mouse RAW264.7 cells assessed as change in IL-6 gene expression at 50 uM treated for 24 hrs by RT-qPCR analysis; assay type: functional, cell-based
[5] = tested on: RAW264.7; assay: Anti-inflammatory activity against LPS-induced mouse RAW264.7 cells assessed as reduction in IL-1beta gene expression at 50 uM treated for 24 hrs by RT-qPCR analysis relative to control; assay type: functional; set-up: scale not given: the % may be the effect or the level left
[6] = tested on: RAW264.7; assay: Anti-inflammatory activity against LPS-induced mouse RAW264.7 cells assessed as reduction in IL-1beta gene expression at 50 uM treated for 24 hrs by RT-qPCR analysis; assay type: functional, cell-based
[7] = tested on: RAW264.7; assay: Anti-inflammatory activity in mouse RAW264.7 cells assessed as inhibition of LPS-induced NO production preincubated for 1 hr followed by LPS stimulation for 24 hrs by Griess reagent assay; assay type: functional, cell-based; details: for Activity: time 25.0 hrs
[8] = tested on: RAW264.7; assay: Anti-inflammatory activity in mouse RAW264.7 cells assessed as reduction in LPS-induced NO production at 50 uM preincubated for 1 hr followed by LPS stimulation for 24 hrs by Griess reagent assay relative to control; assay type: functional; set-up: scale not given: the % may be the effect or the level left; details: time 25 hrs
[9] = tested on: RAW264.7; assay: Anti-inflammatory activity against LPS-induced mouse RAW264.7 cells assessed as decrease in TNF-alpha gene expression by RT-qPCR analysis; assay type: functional, cell-based; details: dose 10-50 µM
[10] = tested on: RAW264.7; assay: Anti-inflammatory activity against LPS-induced mouse RAW264.7 cells assessed as reduction in TNF-alpha gene expression at 50 uM treated for 24 hrs by RT-qPCR analysis relative to control; assay type: functional; set-up: scale not given: the % may be the effect or the level left
[11] = tested on: RAW264.7; assay: Anti-inflammatory activity against LPS-induced mouse RAW264.7 cells assessed as decrease in IL-6 gene expression at 50 uM treated for 24 hrs by RT-qPCR analysis relative to control; assay type: functional; set-up: scale not given: the % may be the effect or the level left
[12] = tested on: RAW264.7; assay: Anti-inflammatory activity against LPS-induced mouse RAW264.7 cells assessed as decrease in IL-6 gene expression by RT-qPCR analysis; assay type: functional, cell-based; details: dose 10-50 µM
[13] = tested on: RAW264.7; assay: Anti-inflammatory activity against LPS-induced mouse RAW264.7 cells assessed as decrease in IL-1beta gene expression by RT-qPCR analysis; assay type: functional, cell-based; details: dose 10-50 µM
[14] = tested on: RAW264.7; assay: Anti-inflammatory activity against LPS-induced mouse RAW264.7 cells assessed as inhibition in TNF-alpha release at 50 uM by ELISA; assay type: functional, cell-based
[15] = tested on: RAW264.7; assay: Anti-inflammatory activity against LPS-induced mouse RAW264.7 cells assessed as inhibition in IL-6 release at 50 uM by ELISA; assay type: functional, cell-based

SMILES | Activity [1] | Activity [2] | Activity [3] | Activity [4] | Activity [5] | Activity [6] | IC50 [7] | Activity [7] | Activity [8] | Activity [9] | Activity [10] | Activity [11] | Activity [12] | Activity [13] | Activity [14] | Activity [15]
COc1cc(C(=O)OC[C@H]2O[C@@H](Oc3cc4occ(-c5ccc(O)cc5)c(=O)c4c(O)c3OC)[C@H](O)[C@@H](O)[C@@H]2O)ccc1O | Non-toxic | inactive | Not active; Increase In Tnf-Alpha Gene Expression Observed | Not active; Increase In Il-6 Gene Expression Observed | 4.1% | – | – | – | – | – | – | – | – | – | – | –
COc1c(O[C@@H]2O[C@H](CO)[C@@H](O)[C@H](O)[C@H]2O)cc(O)c2c(=O)c(-c3ccc(O)cc3)coc12 | Non-toxic | inactive | inactive | inactive | 14.4% | – | – | – | – | – | – | – | – | – | – | –
COc1c(O[C@@H]2O[C@H](CO)[C@@H](O)[C@H](O)[C@H]2O)cc2occ(-c3ccc(O[C@@H]4O[C@H](CO)[C@@H](O)[C@H](O)[C@H]4O)cc3)c(=O)c2c1O | Non-toxic | inactive | inactive | inactive | – | Not active; Increase In Il-1Beta Gene Expression Observed | – | – | – | – | – | – | – | – | – | –
COc1c(O)cc(O)c2c(=O)c(-c3ccc(O)cc3)coc12 [PSI-TECTORIGENIN] | Non-toxic | – | – | – | 61% | – | 26.8 µM | Dose-dependent-effect | ~100% | Dose-dependent-effect | 46.3% | 56% | Dose-dependent-effect | Dose-dependent-effect | Active | Active
COc1c(O)cc2occ(-c3ccc(O)cc3)c(=O)c2c1O [TECTORIGENIN] | Non-toxic | – | – | – | 90.8% | – | 51.7 µM | Dose-dependent-effect | 48.4% | Dose-dependent-effect | 40% | 87.8% | Dose-dependent-effect | Dose-dependent-effect | Active | Active
COc1c(O[C@@H]2O[C@H](CO)[C@@H](O)[C@H](O)[C@H]2O)cc2occ(-c3ccc(O)cc3)c(=O)c2c1O [TECTORIDIN] | Non-toxic | inactive | inactive | inactive | 31.2% | – | – | – | – | – | – | – | – | – | – | –
